Source: patent US5304556A, “Benza-triazinone derivatives” (Mitsubishi Kasei Corporation, priority 1991, dated 1994)
Read-outs that look alike come from different tables or passages of the source.

What was measured:
[1] = Kokai Sho 60-132928, Table 2; cited from earlier work
[2] = tested on: mouse death due to shock induced by PAF; test: Activity to mouse death due to shock induced by PAF; format: in vivo; details: male ICR mouse; oral 1 hour prior to i.v. 100 μg/kg PAF; survival at 24 hours
Protocol: Test was effected according to Young et al. method, Prostaglandins, Vol. 30, p.545, 1985. Lethal test was effected by treating starved male ICR mouse weighing from 25 g to 30 g with PAF without anesthesia. Test Compound was orally administered 1 hour prior to tail intravenous administration of 100 μg/kg of PAF. Survival rate of the test animal was examined 24 hours after intravenous administration of PAF.

[3] = tested on: Rabbit platelet aggregation induced by PAF; test: Rabbit platelet aggregation inhibitory activity (PAF-induced); format: cell-based, rabbit (New Zealand white); details: Oryctolagus cuniculus, read-out: Rabbit Platelet Aggregation Inhibitory activity IC50
Protocol: To 0.9 volume of blood collected from jugular vein of a New Zealand white male rabbit weighing from 2.5 to 3.5 kg was added 0.1 volume of 3.8% aqueous sodium citrate, and the mixture was centrifuged at 110 xg for 15 minutes to give PRP ([…]). Assay of platelet aggregation induced by PAF was effected using 4 channels aggregometer (Manufacturer: Nicoh Bioscience Co.) according to Bohn et al, Turbidimetry [J. Physiology, Vol. 168, p.178, 1963]. […] The final concentration of PAF in the reaction mixture was adjusted to 10^-10 M.

[4] = tested on: contraction of the respiratory tract due to PAF; test: Activity to contraction of the respiratory tract of guinea pig due to PAF; format: in vivo, guinea pig (Hartley); details: Cavia porcellus, read-out: Activity to Contraction of the Respiratory Tract of Guinea Pig due to PAF ED50
Protocol: Hartley male guinea pigs weighing from 350 g to 500 g were anesthetized by intraperitoneal administration of 50 mg/kg of sodium pentobarbital. Contraction of the respiratory tract was measured by inserting a cannula into trachea and measuring under artificial ventilation according to Conzet et al, Arch. […] 71. Test compound was orally administered 1 hour prior to intravenous administration of 0.3 μg/kg of PAF.

Acute toxicity = details: in vivo; male and female SD (CD) rat; oral, 0.5% aqueous CMC-Na suspension; observed 14 days
[5] = tested on: thromboxane synthetase enzyme; details: Kokai Sho 63-316778, Table 1; cited from earlier work
[6] = rabbit PRP, PAF final concentration 10^-10 M
[7] = Hartley male guinea pig, oral 1 hour prior to i.v. 0.3 μg/kg PAF

CN1C(=O)c2ccc(Oc3ccc(C(F)(F)F)cc3Cl)cc2C1=O
herbicidal activity [1]: shows herbicidal activity

Cc1nnc2n1-c1sc(CCC(=O)N3CCOCC3)cc1C(c1ccccc1Cl)=NC2 [WEB2086, reference compound]
ED50 [2]: 1 mg/kg
IC50 [3]: 40 nM
ED50 ([4]; po, 1 h): 0.15 mg/kg

O=c1c2cc(Oc3ccc(Cl)cc3)ccc2nnn1Cc1cccnc1 [compound 2, 6-(4-chlorophenoxy)-3-(3-pyridylmethyl)-1,2,3-benzotriazin-4 (3H)-one]
LD50 at 336 h (Acute toxicity): > 2000 mg/kg
ED50 [2]: 2.1 mg/kg
IC50 [3, 6]: 26 nM
ED50 [4, 7]: 0.15 mg/kg

O=C1c2ccc(Oc3ccc(Cl)cc3)cc2C(=O)N1Cc1cccnc1 [compound 25, 5-(4-chlorophenoxy)-2-(3-pyridylmethyl)-1H-isoindole-1,3 (2H)-dione]
LD50 at 336 h (Acute toxicity): > 2000 mg/kg
ED50 [2]: 1.3 mg/kg
IC50 [3, 6]: 10 nM
ED50 [4, 7]: 0.14 mg/kg

O=C(c1ccc(Cl)cc1)c1ccc2c(c1)C(=O)N(Cc1cccnc1)C2=O [compound 45, 5-(4-chlorobenzoyl)-2-(3-pyridylmethyl)-1H-isoindole-1,3 (2H)-dione]
ED50 [2]: 0.6 mg/kg
IC50 [3, 6]: 19 nM

O=C1c2ccc(-c3cccc4ccccc34)cc2C(=O)N1Cc1cccnc1 [compound 50, 5-(1-naphthyl)-2-(3-pyridylmethyl)-1H-isoindole-1,3 (2H)-dione]
ED50 [2]: 0.32 mg/kg
IC50 [3, 6]: 24 nM

O=C1c2ccc(N(c3ccc(Cl)cc3)c3ccc(Cl)cc3)cc2C(=O)N1Cc1cccnc1 [compound 60, 5-[N,N-bis (4-chlorophenyl)amino]-2-(3-pyridylmethyl)-1H-isoindole-1,3(2H)-dione]
LD50 at 336 h (Acute toxicity): > 2000 mg/kg
ED50 [2]: 0.019 mg/kg
IC50 [3, 6]: 2.6 nM
ED50 [4, 7]: 0.019 mg/kg

N#Cc1ccc(N(c2ccc(C#N)cc2)c2ccc3c(c2)C(=O)N(Cc2cccnc2)C3=O)cc1 [compound 63, 5-[N,N-bis (4-cyanophenyl)amino]-2-(3-pyridylmethyl)-1H-isoindole-1,3 (2H)-dione]
LD50 at 336 h (Acute toxicity): > 2000 mg/kg
ED50 [2]: 0.007 mg/kg
IC50 [3, 6]: 1.7 nM
ED50 [4, 7]: 0.006 mg/kg

O=C1c2ccc(C(c3ccc(Cl)cc3)c3ccc(Cl)cc3)cc2C(=O)N1Cc1cccnc1 [compound 68, 5-[bis (4-chlorophenyl)methyl]-2-(3-pyridylmethyl)-1H-isoindole-1,3 (2H)-dione]
IC50 [3, 6]: 1.8 nM

O=C1c2cccc(Oc3ccc(Cl)cc3)c2C(=O)N1Cc1cccnc1 [compound 72, 4-(4-chlorophenoxy)-2-(3-pyridylmethyl)-1H-isoindole-1,3 (2H)-dione]
ED50 [2]: 0.4 mg/kg
IC50 [3, 6]: 32 nM

O=C1c2cc(Oc3ccc(Cl)cc3)ccc2CCN1Cc1cccnc1 [compound 84, 7-(4-chlorophenoxy)-3,4-dihydro-2-(3-pyridylmethyl)-1 (2H)-isoquinolinone]
IC50 [3, 6]: 10 nM

O=C1c2cc(Oc3ccc(F)cc3)ccc2CN1Cc1cccnc1 [compound 125, 2,3-dihydro-6-(4-fluorophenoxy)-2-(3-pyridylmethyl)-1H-isoindole-1-one]
IC50 [3, 6]: 36 nM

O=c1c2cc(Oc3ccc(Cl)cc3)ccc2ccn1Cc1cccnc1 [compound 128, 7-(4-chlorophenoxy)-2-(3-pyridylmethyl)-1 (2H)-isoquinolinone]
IC50 [3, 6]: 18 nM

O=c1c2cc(Oc3ccc(Cl)cc3)ccc2ccn1-c1cccnc1 [compound 130, 7-(4-chlorophenoxy)-2-(3-pyridyl)-1 (2H)-isoquinolinone]
ED50 [2]: 0.018 mg/kg

O=c1c2cc(Oc3ccc(Cl)cc3)ccc2ncn1Cc1cccnc1 [compound 131, 6-(4-chlorophenoxy)-3-(3-pyridylmethyl)-4 (3H)-quinazolinone]
IC50 [3, 6]: 31 nM

O=c1c2cc(Cl)ccc2nnn1CCCn1ccnc1 [formula (A)]
thromboxane synthetase enzyme inhibition [5]: inhibits thromboxane synthetase enzyme
